This is an account of results in patent publication US20220362122A1, “Hair Treatment Compositions With Amine Derivatives” (ELC Management LLC, priority 2021, published 2022).

Entries after “also recorded” stand apart in the source; their conditions may differ. Read-outs that look alike come from different tables or passages of the source.

For series [1] the following is noted: alkalizer composition.
In series [2] the test system is keratin in hair. As to the kind of experiment: DSC analysis: keratin denaturation temperature of treated hair. Background: In DSC, transitions show as peaks or steps in heat flow.
A short description of series [3]: pH of alkalizer composition.
The conditions of series [4]: for Lifting level normalized to NH3•H2O / Relative lifting level in percentage (LVirgin-LAlkalizer)/(LVirgin-LNaOH) / ΔL (change in color lifting) LVirgin-LAlkalizer: single alkalizer compositions, Table 5; for lifting of natural hair color, comparison in words: single alkalizer/oxidizer mixtures; for L Value: single alkalizer composition + volume 40 oxidizer developer on hair tresses, 37° C., 45 minutes, virgin 19.

For series [5] the following is noted: active component; cited from earlier work.
For series [6] the following is noted: alkalizer composition; 22° C., T-F spindle, 6 rpm.
Series [7] is described as follows: Tensile strength: break stress of treated hair fibers. The note with it: hair fibers after alkalizer composition + oxidant.
The subject of a further series is keratinocytes. As to the kind of experiment: MultiTox-Fluor Multiplex Cytotoxicity Assay, keratinocytes. It counts as cell-based. The note with it: for toxicity to the cell, comparison in words: keratinocytes; for IC50: Keratinocyte, greater IC50 = less stress on the cells, unit inferred. The procedure:
(§1) The effects of alkalizer compositions on outer root sheath cells and on keratinocytes was evaluated. The MultiTox-Fluor Multiplex Cytotoxicity Assay (Promega Corp., Madison, Wis.) simultaneously measures two protease activities: one is a marker of cell viability, and the other is a marker of cytotoxicity. In the assays, the responses of outer root sheath cells and keratinocytes to various concentrations of alkalizers were measured, and IC50, the concentration that provokes a mid-height response (midway between the baseline response and maximal response), was determined.

Another series deals with outer root sheath cells. The series can be described thus: MultiTox-Fluor Multiplex Cytotoxicity Assay, outer root sheath cells. The series is classed as cell-based. To be noted: for toxicity to the cell, comparison in words: outer root sheath cells; for IC50: greater IC50 = less stress on the cells, unit inferred. The procedure:
as §1

Series [8] has as its system keratin in hair.
[9] abbreviates: single alkalizer compositions, Table 4A.
Where [10] appears, read: alkalizer composition: Table 2 base + alkalizer, same molar percentage.

In the case of `CN(C)CCCO` [DMAP, 3-Dimethyl-amino-1-propanol], in series [1], the “Alkalinity” value worked out at 2.32 mL/g. Also, the “hair damage / denaturation temperature, comparison in words” value (from here on “hair damage / denaturation temperature”) with keratin in hair [2] (DSC, single alkalizer compositions) is on record as “performed the closest to ammonium hydroxide; also recorded: less damaging to hair than the ammonium hydroxide composition; also recorded: a better performer than ammonia”. The “Denaturation Temperature (° C.)” value in the series with keratin in hair [2] (single alkalizer composition + volume 40 (12%) oxidizer developer on hair tresses, 37° C., 45 minutes, virgin hair 150.42) was 147.80 °C. Also, in the series on keratin in hair [2] (setting [9]), the “% Relative damage level compared to NaOH (TVirgin-TAlkalizer)/(TVirgin-TNaOH)” value (“% Relative damage level compared to NaOH” for short) is reported as 18.33%, the “Damage level normalized to NH3•H2O” value is 0.94 and the “ΔT (change in denaturation temperature) TVirgin-TAlkalizer” value was found to be 2.62. This compound also displayed a pH in series [3] of 10.58. Besides, in [4], the “Lifting level normalized to NH3•H2O” value is listed as 0.53; the “Relative lifting level in percentage (LVirgin-LAlkalizer)/(LVirgin-LNaOH)” value (shortened to “Relative lifting level in percentage”) turned out to be 45.45%; the “ΔL (change in color lifting) LVirgin-LAlkalizer” value was −8; the “lifting of natural hair color, comparison in words” value was “performed significantly less well than ammonium hydroxide”. The pKa in [5] was 9.27. Besides, the “Viscosity (cP × 10^5)” value in [6] came out at 2.77 cP × 10^5. Also, the “break stress / fiber damage, comparison in words” value in [7] is “cause a similar amount of damage or less damage than their primary amine analogs”.
On to `CN(C)CC(O)CO` (stereo not drawn) [DMAPD, 3-(dimethylamino)-1,2-propanediol], for which the “Alkalinity” value in [1] came to 2.57 mL/g. For the same compound, the “toxicity to the cell, comparison in words” value (“toxicity to the cell” below) in the series with keratinocytes was “significantly less toxic than ammonium hydroxide”. Also, the pH in series [3] (setting [10]) was 10.37. In the series on outer root sheath cells, the “toxicity to the cell” value was “significantly less toxic than ammonium hydroxide”. For the same compound, in [4], the “L Value” was determined as 25.5, the “Lifting level normalized to NH3•H2O” value is given as 0.43, the “Relative lifting level in percentage” value amounted to 36.93% and the “ΔL (change in color lifting) LVirgin-LAlkalizer” value is on record as −6.5. Also, in the series with keratin in hair [8], the “% Relative damage level compared to NaOH” value was determined as 6.72%; the “Damage level normalized to NH3•H2O” value came out at 0.34; the “hair damage / denaturation temperature” value is reported as “less damaging to hair than the ammonium hydroxide composition”; the “ΔT (change in denaturation temperature) TVirgin-TAlkalizer” value came to 0.96. Further, the “Viscosity (cP × 10^5)” value in series [6] came out at 3.23 cP × 10^5.
Consider `NCC(O)CO` (stereo not drawn) [Isoserinol, 3-Amino-1,2-propanediol], for which, in series [1], the “Alkalinity” value amounted to 2.45 mL/g. For the same compound, in the series on keratinocytes, the IC50 was determined as 97 mM and the “toxicity to the cell” value is given as “significantly less toxic than ammonium hydroxide”. Moreover, the pH in [3] (setting [10]) was 10.56. In the series on outer root sheath cells, the midpoint of inhibition, the IC50, lay at 56.3 mM and the “toxicity to the cell” value is “significantly less toxic than ammonium hydroxide”. Moreover, in [4], the “L Value” was 36, the “Lifting level normalized to NH3•H2O” value came out at 1.13, the “Relative lifting level in percentage” value amounted to 96.59% and the “ΔL (change in color lifting) LVirgin-LAlkalizer” value was −17. Besides, the “lifting of natural hair color, comparison in words” value in series [4] was “significantly better than AMP and about the same as MEA, at lifting hair color; also recorded: better at lifting natural hair color than the ammonium hydroxide/oxidizer mixture; also recorded: about the same effectiveness as MEA, and significantly better effectiveness than AMP”. In the series on keratin in hair [8], the “% Relative damage level compared to NaOH” value is on record as 40.80%; the “Damage level normalized to NH3•H2O” value is reported as 2.09; the “hair damage / denaturation temperature” value is “performed significantly better than MEA and AMP”; the “ΔT (change in denaturation temperature) TVirgin-TAlkalizer” value is 5.83. Further, in series [6], the “Viscosity (cP × 10^5)” value amounted to 3.75 cP × 10^5.
`NCCO` [MEA, monoethanolamine, reference compound]: in series [1], the “Alkalinity” value turned out to be 2.35 mL/g. Besides, in the series on keratinocytes, half-maximal inhibition (IC50) required 23 mM and the “toxicity to the cell” value is “more toxic to the cell than ammonium hydroxide”. The pH in series [3] (setting [10]) was determined as 10.85. Further, in the series on outer root sheath cells, half-maximal inhibition (IC50) was put at 21.4 mM and the “toxicity to the cell” value is reported as “more toxic to the cell than ammonium hydroxide”. Also, in series [4], the “L Value” turned out to be 36 and the “ΔL (change in color lifting) LVirgin-LAlkalizer” value is on record as −17. Further, in the series with keratin in hair [8], the “Damage level normalized to NH3•H2O” value was 3.03 and the “ΔT (change in denaturation temperature) TVirgin-TAlkalizer” value was 8.46. The “Viscosity (cP × 10^5)” value in [6] was 3.02 cP × 10^5.

The term pKa denotes the negative logarithm of the acid dissociation constant. Broadly, the IC50 is the point on the concentration scale where inhibition reaches its midpoint. Read a high IC50 as lower potency.
